Assay results from PubChem BioAssay (NCI).
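Five compound concentrations were applied to cells in 96-well plates for 48 hours; endpoints were derived by simple linear interpolation of the resulting dose-response curve. TGI: total growth inhibition.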

Assays:
Test in all cases: NCI anticancer screen, dose series, 48 h
786-0 renal = system: 786-0 renal
A498 renal = system: A498 renal
A549 NSCLC = system: A549 NSCLC
ACHN renal = system: ACHN renal
BT-549 breast = system: BT-549 breast
CAKI-1 renal = system: CAKI-1 renal
CCRF-CEM leukemia = system: CCRF-CEM leukemia
COLO 205 colon = system: COLO 205 colon
DU-145 prostate = system: DU-145 prostate
EKVX NSCLC = system: EKVX NSCLC
HCC-2998 colon = system: HCC-2998 colon
HCT-116 colon = system: HCT-116 colon
HCT-15 colon = system: HCT-15 colon
HL-60(TB) leukemia = system: HL-60(TB) leukemia
HOP-62 NSCLC = system: HOP-62 NSCLC
HOP-92 NSCLC = system: HOP-92 NSCLC
HS 578T breast = system: HS 578T breast
HT29 colon = system: HT29 colon
IGROV1 ovarian = system: IGROV1 ovarian
K-562 leukemia = system: K-562 leukemia
KM12 colon = system: KM12 colon
LOX IMVI melanoma = system: LOX IMVI melanoma
M14 melanoma = system: M14 melanoma
MALME-3M melanoma = system: MALME-3M melanoma
MCF7 breast = system: MCF7 breast
MDA-MB-231 breast = system: MDA-MB-231 breast
MDA-MB-435 = system: MDA-MB-435
MDA-N = system: MDA-N
MOLT-4 leukemia = system: MOLT-4 leukemia
NCI-H226 lung = system: NCI-H226 lung
NCI-H23 lung = system: NCI-H23 lung
NCI-H460 lung = system: NCI-H460 lung
NCI-H522 lung = system: NCI-H522 lung
NCI/ADR-RES ovarian = system: NCI/ADR-RES ovarian
OVCAR-3 ovarian = system: OVCAR-3 ovarian
OVCAR-4 ovarian = system: OVCAR-4 ovarian
OVCAR-5 ovarian = system: OVCAR-5 ovarian
OVCAR-8 ovarian = system: OVCAR-8 ovarian
PC-3 prostate = system: PC-3 prostate
RPMI-8226 leukemia = system: RPMI-8226 leukemia
RXF 393 renal = system: RXF 393 renal
SF-268 CNS = system: SF-268 CNS
SF-295 CNS = system: SF-295 CNS
SF-539 CNS = system: SF-539 CNS
SK-MEL-2 melanoma = system: SK-MEL-2 melanoma
SK-MEL-28 melanoma = system: SK-MEL-28 melanoma
SK-MEL-5 melanoma = system: SK-MEL-5 melanoma
SK-OV-3 ovarian = system: SK-OV-3 ovarian
SN12C renal = system: SN12C renal
SNB-19 CNS = system: SNB-19 CNS
SNB-75 CNS = system: SNB-75 CNS
SR leukemia = system: SR leukemia
SW-620 colon = system: SW-620 colon
T-47D breast = system: T-47D breast
TK-10 renal = system: TK-10 renal
U251 CNS = system: U251 CNS
UACC-257 melanoma = system: UACC-257 melanoma
UACC-62 melanoma = system: UACC-62 melanoma
UO-31 renal = system: UO-31 renal
DLD-1 colon = system: DLD-1 colon
DMS 114 small cell lung = system: DMS 114 small cell lung
DMS 273 small cell lung = system: DMS 273 small cell lung
HOP-18 NSCLC = system: HOP-18 NSCLC
KM20L2 colon = system: KM20L2 colon
LXFL 529 NSCLC = system: LXFL 529 NSCLC
SNB-78 CNS = system: SNB-78 CNS

CC1OC(OC2C(O)COC(OC3C(C)OC(OC4C(OC(=O)[C@]56CCC(C)(C)C[C@@H]5C5=CCC7[C@@]8(C)C[C@H](O)[C@H](OC9OC(CO)C(O)C(O)C9O)[C@@](C)(CO)[C@@H]8CC[C@@]7(C)[C@]5(C)CC6)OCC(O)C4O)C(O)C3OC3OCC(O)(CO)C3O)C2O)C(O)C(O)C1O (stereo partly specified)
TGI (786-0 renal): 27.8 µM
TGI (A498 renal): 13.6 µM
TGI (A549 NSCLC): 18 µM
TGI (ACHN renal): 34 µM
TGI (BT-549 breast): 38 µM
TGI (CAKI-1 renal): 13.8 µM
TGI (CCRF-CEM leukemia): 44.7 µM
TGI (COLO 205 colon): 6.37 µM
TGI (DU-145 prostate): 30.3 µM
TGI (EKVX NSCLC): 15.8 µM
TGI (HCC-2998 colon): 14.7 µM
TGI (HCT-116 colon): 30.6 µM
TGI (HCT-15 colon): 38.7 µM
TGI (HL-60(TB) leukemia): 30.2 µM
TGI (HOP-62 NSCLC): 34.5 µM
TGI (HOP-92 NSCLC): 50.3 µM
TGI (HS 578T breast): 35.8 µM
TGI (HT29 colon): 37.4 µM
TGI (IGROV1 ovarian): 31.1 µM
TGI (K-562 leukemia): > 75 µM
TGI (KM12 colon): 52.4 µM
TGI (LOX IMVI melanoma): 43.2 µM
TGI (M14 melanoma): 10.4 µM
TGI (MALME-3M melanoma): 33.8 µM
TGI (MCF7 breast): > 67.9 µM
TGI (MDA-MB-231 breast): 30 µM
TGI (MDA-MB-435): 47.3 µM
TGI (MDA-N): 32.5 µM
TGI (MOLT-4 leukemia): 46.5 µM
TGI (NCI-H226 lung): 43 µM
TGI (NCI-H23 lung): 27.1 µM
TGI (NCI-H460 lung): 42.2 µM
TGI (NCI-H522 lung): 35.7 µM
TGI (NCI/ADR-RES ovarian): 41.7 µM
TGI (OVCAR-3 ovarian): 40.8 µM
TGI (OVCAR-4 ovarian): 37.2 µM
TGI (OVCAR-5 ovarian): 24.3 µM
TGI (OVCAR-8 ovarian): 40.4 µM
TGI (PC-3 prostate): 28.6 µM
TGI (RPMI-8226 leukemia): > 100 µM
TGI (RXF 393 renal): 34.1 µM
TGI (SF-268 CNS): 28.4 µM
TGI (SF-295 CNS): 32.2 µM
TGI (SF-539 CNS): 44.8 µM
TGI (SK-MEL-2 melanoma): 30.8 µM
TGI (SK-MEL-28 melanoma): 13.6 µM
TGI (SK-MEL-5 melanoma): 29.8 µM
TGI (SK-OV-3 ovarian): 34.8 µM
TGI (SN12C renal): 16.4 µM
TGI (SNB-19 CNS): 29 µM
TGI (SNB-75 CNS): 39.6 µM
TGI (SR leukemia): 38 µM
TGI (SW-620 colon): 31.6 µM
TGI (T-47D breast): 51.1 µM
TGI (TK-10 renal): 32.1 µM
TGI (U251 CNS): 37.4 µM
TGI (UACC-257 melanoma): 28.5 µM
TGI (UACC-62 melanoma): 31.6 µM
TGI (UO-31 renal): 14.2 µM

CC(=O)c1sc(Nc2nnc(-c3ccc(-c4nnc(Nc5nc(C)c(C(C)=O)s5)o4)cc3)o2)nc1C
TGI (786-0 renal): > 100 µM
TGI (A498 renal): > 100 µM
TGI (A549 NSCLC): > 10 µM
TGI (ACHN renal): > 100 µM
TGI (CAKI-1 renal): > 10 µM
TGI (CCRF-CEM leukemia): > 100 µM
TGI (COLO 205 colon): > 100 µM
TGI (DLD-1 colon): > 100 µM
TGI (DMS 114 small cell lung): > 100 µM
TGI (DMS 273 small cell lung): > 100 µM
TGI (EKVX NSCLC): > 100 µM
TGI (HCC-2998 colon): > 100 µM
TGI (HCT-116 colon): > 100 µM
TGI (HCT-15 colon): > 100 µM
TGI (HL-60(TB) leukemia): > 100 µM
TGI (HOP-18 NSCLC): > 100 µM
TGI (HOP-62 NSCLC): > 100 µM
TGI (HOP-92 NSCLC): > 100 µM
TGI (HT29 colon): > 100 µM
TGI (IGROV1 ovarian): > 100 µM
TGI (K-562 leukemia): > 100 µM
TGI (KM12 colon): > 10 µM
TGI (KM20L2 colon): > 100 µM
TGI (LOX IMVI melanoma): > 100 µM
TGI (LXFL 529 NSCLC): > 100 µM
TGI (M14 melanoma): > 100 µM
TGI (MALME-3M melanoma): > 100 µM
TGI (MOLT-4 leukemia): > 100 µM
TGI (NCI-H226 lung): > 100 µM
TGI (NCI-H23 lung): > 100 µM
TGI (NCI-H460 lung): > 100 µM
TGI (NCI-H522 lung): > 10 µM
TGI (OVCAR-3 ovarian): > 100 µM
TGI (OVCAR-4 ovarian): > 100 µM
TGI (OVCAR-5 ovarian): > 10 µM
TGI (OVCAR-8 ovarian): > 100 µM
TGI (RPMI-8226 leukemia): > 100 µM
TGI (RXF 393 renal): > 100 µM
TGI (SF-268 CNS): > 100 µM
TGI (SF-295 CNS): > 100 µM
TGI (SK-MEL-28 melanoma): > 100 µM
TGI (SK-OV-3 ovarian): > 10 µM
TGI (SN12C renal): > 100 µM
TGI (SNB-19 CNS): > 100 µM
TGI (SNB-78 CNS): > 100 µM
TGI (SR leukemia): > 100 µM
TGI (SW-620 colon): > 100 µM
TGI (TK-10 renal): > 100 µM
TGI (U251 CNS): > 100 µM
TGI (UACC-257 melanoma): > 100 µM
TGI (UACC-62 melanoma): > 100 µM
TGI (UO-31 renal): > 10 µM
